Where two headings read alike, the source gives them in different places.
Key:
[1] = molecular target: GGTase I (substrate RhoA) (Homo sapiens, UniProt P49354+P53609); assay: GGTase I filter-binding assay with RhoA as substrate; type: biochemical; conditions: read-out: % activity of GGTase I for protein RhoA in the presence of the compound
Experimental: (§1) The pilot library was screened for inhibitors of protein geranylgeranyltransferase type I. Protein prenyltransferase assays were carried out by using filter binding. Two different substrates, RhoA and K-Ras4B, were used for the assay. RhoA ends with the CaaL motif and is an exclusive substrate for GGTase I, while K-Ras4B ends with the CaaX motif and is modified by both GGTase I and FTase.
(§2) The % activity of GGTase I was determined as follows: a working solution that contained each compound in DMSO at the concentration of 1 mM was prepared. The working solution was added to GGTase I reaction mixture so that the final concentration of the compound is 50 μM. GGTase I activity was assayed by incubating [^3H]GGPP with K-Ras4B or RhoA protein in the presence of GGTase I and examining radioactivity incorporated into the substrate protein by spotting onto a filter paper. After washing with TCA, ethanol and acetone, the radioactivity retained on the filter was determined by the use of a scintillation counter. GGTase I activity in the presence of DMSO was taken as a 100% value and the activity in the presence of the compound was shown as percent activity compared with the 100% value. […] For 6-aryl-4-mercapto-N-sulfonyl-piperidine-3-carboxylic acid 11 the 4-mercapto substituent appeared critical to endowing GGTase inhibitory activity. […] 4-Chlorobenzylthio substituent was the next best; 12 compounds out of 21 containing the 4-chlorobenzylthio moiety were active. 4-Benzylthio substituent was also good; 7 piperidines out of 21 bearing 4-benzylthio group were active. […] 19 imines (C15>C12=C41>C40>C01=C11>C05=C10=C30=C35=C37=C38>C02, C03, C04, C06, C39=C43) out of 21 appeared in the GGTIs. […] This corresponds to 47 6-aryl-4-mercapto-N-sulfonyl-piperidine-3-carboxylic acids out of 357 compounds.
(§3) A collection of 138 heterocycles was screened for their ability to inhibit the activity of human GGTase-I to geranylgeranylate K-Ras4B or RhoA. Purified GGTase-1 was incubated with its substrate protein K-Ras4B or RhoA, [^3H]GGPP, and the 138 compounds. After 30 min, the degree of incorporation of tritiated geranylgeranyl groups was measured using a scintillation counter.
The GGTase-I assay was carried out using RhoA as a substrate protein, GGTase-I (JENA Bioscience) and [3H]geranylgeranyl pyrophosphate. Incubation was for 30 min at 37 C. GGTase-H (or RabGGTase) assay was carried out using YPT1 as a substrate protein, GGTase-H (Calbiochem, San Diego, Calif.) plus REP1 (Calbiochem) and [3H]geranylgeranyl pyrophosphate. Incubation was for 30 min at 37 C. FIGS. 20D-20F show the three dimensional structure of GGTase I (D), FTsse (E) and GGTase II (F) which can be obtained from X-ray diffraction studies of protein crystals.

[2] = molecular target: GGTase I (substrate K-Ras4B) (Homo sapiens, UniProt P49354+P53609); assay: GGTase I filter-binding assay with K-Ras4B as substrate; type: biochemical; conditions: read-out: % activity of GGTase I for protein K-Ras4B in the presence of the compound
Experimental: as §1, §2, §3

[3] = 50 μM compound, DMSO = 100%, smaller numbers indicate better inhibition, second number of pair
[4] = 50 μM compound, DMSO = 100%, smaller numbers indicate better inhibition, first number of pair

| Structure (SMILES) | activity at 50 µM [1] [%] | activity at 50 µM [2] [%] | activity at 50 µM [1, 3] [%] | activity at 50 µM [2, 4] [%] |
| --- | --- | --- | --- | --- |
| Cc1ccc(S(=O)(=O)N2[C@@H](c3cccc(F)c3)C(C(=O)O)=C[C@H]2C(C)(C)C)cc1 | 9.1 | 23.7 | – | – |
| Cc1ccccc1S(=O)(=O)N1[C@@H](c2ccc(Cl)cc2)C(C(=O)O)=C[C@H]1CC1CCCC1 | 9.1 | 23.7 | – | – |
| Cc1ccc(S(=O)(=O)N2C(c3ccc(Cl)c(Cl)c3)CC=C(C(=O)O)[C@@H]2c2cccc(Br)c2)cc1 (some centres unmarked) | 3.2 | 8.6 | – | – |
| Cc1ccc(S(=O)(=O)N2C(c3ccc(Cl)c(Cl)c3)CC=C(C(=O)O)[C@@H]2c2cccc(Cl)c2)cc1 (some centres unmarked) | 4.5 | 10.7 | – | – |
| Cc1ccccc1S(=O)(=O)N1C(c2ccc(Cl)cc2)CC=C(C(=O)O)[C@@H]1c1ccccc1 (some centres unmarked) | 5.8 | 13.4 | – | – |
| Cc1ccc(S(=O)(=O)N2C(c3ccc(Cl)c(Cl)c3)CC=C(C(=O)O)[C@@H]2c2ccc(Br)cc2)cc1 (some centres unmarked) | 11.3 | 18.7 | – | – |
| C=CCS[C@H]1[C@@H](C(=O)O)[C@H](c2cccc(F)c2)N(S(=O)(=O)c2ccc(C)cc2)[C@@H]1CC1CCCC1 | – | – | 9.7 | 30.4 |
| CCC[C@@H]1[C@@H](SCCC(=O)OC(C)(C)C)[C@@H](C(=O)O)[C@H](c2cccc(F)c2)N1S(=O)(=O)c1ccc(C)cc1 | – | – | 7.8 | 20.2 |
| CCCC[C@@H]1[C@@H](Sc2ccc(OC)cc2)[C@@H](C(=O)O)[C@H](c2cccc(F)c2)N1S(=O)(=O)c1ccc(C)cc1 | – | – | 3.5 | 27.4 |
| Cc1ccc(S(=O)(=O)N2[C@H](CC3CCCC3)[C@@H](SCCC(=O)OC(C)(C)C)[C@@H](C(=O)O)[C@@H]2c2cccc(F)c2)cc1 | – | – | 8.2 | 31.9 |

— patent publication US8093274B2, “Inhibitors of protein prenyltransferases” (The Regents of the University of California, priority 2006, dated 2012)
